# Test results as given in patent US10702479B2, “Pharmaceutical formulation comprising sembragiline” (Hoffmann-La Roche Inc., priority 2015, dated 2020).
# Like-named read-outs stand apart in the source and are kept apart here.
# Assay: Solubility of Sembragiline in media at 37° C.
# Assay type: physicochemical
# Details: for solubility at 4 h: read-out: Solubility of Sembragiline After 4 h
structure (smiles),measurement,setting,value
"CC(=O)N[C@H]1CC(=O)N(c2ccc(OCc3cccc(F)c3)cc2)C1 [Sembragiline, N-[(3S)-1-[4-[(3-fluorophenyl)methoxy]phenyl]-5-oxo-pyrrolidin-3-yl]acetamide]",Dose Solubility Ratio,"1 mg, Water",25
same,Dose Solubility Ratio,"1 mg, pH 1, HCl 0.1N",25
same,Dose Solubility Ratio,"1 mg, pH 4.5, 50 mM acetate buffer",25
same,Dose Solubility Ratio,"1 mg, pH 6.8, 50 mM phosphate buffer",25
same,Dose Solubility Ratio,"1 mg, pH 7.5, 50 mM phosphate buffer",25
same,Dose Solubility Ratio,"5 mg, Water",125
same,Dose Solubility Ratio,"5 mg, pH 1, HCl 0.1N",125
same,Dose Solubility Ratio,"5 mg, pH 4.5, 50 mM acetate buffer",125
same,Dose Solubility Ratio,"5 mg, pH 6.8, 50 mM phosphate buffer",125
same,Dose Solubility Ratio,"5 mg, pH 7.5, 50 mM phosphate buffer",125
same,solubility at 4 h,"0.1 N HCl, simulated gastric fluid, pH 1, HCl 0.1N",40 µg/mL
same,Solubility of Sembragiline 250 mL,Water,10 mg
same,solubility at 4 h,Water,40 µg/mL
same,solubility at 4 h,"aqueous buffer, pH 4.5, 50 mM acetate buffer",40 µg/mL
same,solubility at 4 h,"aqueous buffer, pH 6.8, 50 mM phosphate buffer",40 µg/mL
same,solubility at 4 h,"aqueous buffer, pH 7.5, 50 mM phosphate buffer",40 µg/mL
same,Solubility of Sembragiline 250 mL,"pH 1, HCl 0.1N",10 mg
same,Solubility of Sembragiline 250 mL,"pH 4.5, 50 mM acetate buffer",10 mg
same,Solubility of Sembragiline 250 mL,"pH 6.8, 50 mM phosphate buffer",10 mg
same,Solubility of Sembragiline 250 mL,"pH 7.5, 50 mM phosphate buffer",10 mg
